Measured values published in ChEMBL document CHEMBL3507680, “University of Dundee, Gates Library screen for HepG2 cell viability”.

Experiment: Human HepG2 cell viability assay in 384 well format
Format: toxicity, cell-based
Design: dose 125 nL, time 70.5 hour; cytotoxicity at 70.5 h: concentration not given beside the values
Conditions: HepG2 cells, read-out: Inhibition

Row | SMILES | cytotoxicity at 70.5 h
1 | CN(Cc1ccccn1)C(=O)c1nc(S(C)(=O)=O)n2ccccc12 | 1.32%
2 | CN1CCOC(CNC(=O)COc2ccc(F)cc2F)C1 (centres undefined) | 0.568%
3 | CC(O)CNCc1c(C(C)C)nn(C)c1N1CCOCC1 (centres undefined) | -0.301%
4 | CCNC(=O)CNCc1c(C(C)C)nn(C)c1N1CCOCC1 | -2.6%
5 | CS(=O)(=O)c1ccc(C(=O)N2CCCC(n3cccn3)C2)cc1 (centres undefined) | 0.802%
6 | Cc1nnc2n1CCN(C(C(=O)NC1CC1)c1ccc(F)cc1)C2 (centres undefined) | -3.54%
7 | Fc1ccc(-c2nc(CNC3CCc4ncnn4C3)cs2)cc1 (centres undefined) | 0.825%
8 | COc1ccc(S(=O)(=O)NC(=O)COc2ccc3c(c2)CCC3)cc1 | 17.6%
9 | CN(Cc1ccccc1)CC(O)Cn1cnc2c(Cl)cc(Cl)cc2c1=O (centres undefined) | -9.03%
10 | Cc1nn(C)c(C)c1CC(=O)N1CCc2nnc(N(C)C)cc2C1 | -5.78%
11 | Cc1c(F)cc(C(=O)O)cc1S(=O)(=O)Nc1ccc(C#N)cc1 | 19.6%
12 | CNC(=O)CN1CCC(NC(=O)N(C)Cc2c(C)noc2C)CC1 | 26.1%
13 | O=C1CN(C(=O)c2cccc(OCc3cscn3)c2)CCN1 | -1.69%
14 | Cc1noc(C)c1CN(C)C(=O)NC1CCC(O)CC1 (centres undefined) | -8.86%
15 | CCOc1ccc(Cl)c(C(=O)NCCC(=O)Nc2ccccn2)n1 | -6.63%
16 | CCOc1ccc(Cl)c(C(=O)NCCS(N)(=O)=O)n1 | 22%
17 | Cc1ccc(C(=O)N2CCN(CCc3ccccc3)CC2)c(=O)[nH]1 | -7.75%
18 | Cc1noc(C)c1CN(C)C(=O)NC1CCOCC1 | 21%
19 | Cc1noc(C2CCCN(C(=O)CCCNc3ncccn3)C2)n1 (centres undefined) | 3.05%
20 | Cc1noc(C2CCN(C(=O)CCCNc3ncccn3)CC2)n1 | 1.13%

Row | SMILES | cytotoxicity at 70.5 h
21 | Cc1cc(C2CCCN2Cc2ccn(C)c(=O)c2)on1 (centres undefined) | -3.44%
22 | c1cc(-c2nc(CN3CCc4c(ncn4C4CC4)C3)cs2)cs1 | -8.75%
23 | O=C(Nc1ccc(OC2CCCC2)cc1)C1CCCN1c1nccs1 (centres undefined) | 26.8%
24 | Cc1[nH]ncc1C(=O)N1CCCN(Cc2nccn2C(C)C)CC1 | -1.07%
25 | O=C(c1ccon1)N1CCCC(n2cncn2)C1 (centres undefined) | -1.78%
26 | NC(=O)c1cc(C2CCCN(CCOc3ccc(F)cc3)C2)n[nH]1 (centres undefined) | -2.25%
27 | NC(=O)c1cc(C2CCCN(CCCOc3ccc(F)cc3)C2)n[nH]1 (centres undefined) | 4.69%
28 | O=C(c1cc(Cl)cc2cccnc12)N1CCN(CCO)CC1 | -8.63%
29 | CC(C)n1ccnc1CN1CCCN(C(=O)c2cscn2)CC1 | -2.53%
30 | CCc1nc(C2CCCN2CCCS(N)(=O)=O)no1 (centres undefined) | -3.37%
31 | CCOc1ccc(C2CCCN2C(=O)NCCn2ccnc2)cc1 (centres undefined) | -1.63%
32 | CN(C)c1cc(C(=O)N2CCCN(c3cccnn3)CC2)ccn1 | -9.96%
33 | CC(=O)NC1CCCN(Cc2ccn(C)c(=O)c2)C1 (centres undefined) | -9.51%
34 | CCOC1CCN(C(=O)Nc2ccc(=O)n(C)c2)CC1 | 25%
35 | CN(C)c1cc(C(=O)N2CCCCC2)ccn1 | 0.476%
36 | O=C(NCC1CC1)Nc1ccc(OCC(F)(F)F)nc1 | -9.95%
37 | CC(C)N1CC(C(=O)NCc2cccnc2-n2cccn2)CC1=O (centres undefined) | -11%
38 | COc1cccc(-n2nnc(C(=O)N3CCN(C(C)=O)CC3)c2C)c1 | -6.81%
39 | O=C(Nc1nccs1)NC1CCN(Cc2ccccn2)CC1 | -12.4%
40 | CC(C)c1nnc(NC(=O)NC2CCN(Cc3ccccc3)C2)s1 (centres undefined) | -2.21%

Row | SMILES | cytotoxicity at 70.5 h
41 | CCC1c2ccsc2CCN1C(=O)NCCc1ccccn1 (centres undefined) | -9.75%
42 | CCC1c2ccsc2CCN1C(=O)NCc1ccc(C)nc1 (centres undefined) | -10.2%
43 | O=C(NCC1CCOC1)Nc1ccc(Oc2ccc(F)cc2)nc1 (centres undefined) | 15.8%
44 | CC(Nc1cccc(CN2CCOC2=O)c1)C(=O)NC(=O)NC(C)(C)C (centres undefined) | -16.7%
45 | Cn1cc(NC(=O)N2CCC(OCc3ccccc3)CC2)ccc1=O | -9.18%
46 | CCN(CC)c1ccc(C(=O)N2CCCC2Cn2cc(C)cn2)cn1 (centres undefined) | -5.59%
47 | COCCOc1ccc(C(=O)N2CCCC(n3cncn3)C2)cn1 (centres undefined) | 10.1%
48 | CCC1c2ccsc2CCN1C(=O)NCc1cc(C)on1 (centres undefined) | -4.73%
49 | c1cnnc(N2CCCC2CNCc2nc(-c3ccoc3)no2)c1 (centres undefined) | 10%
50 | Cc1cnn(C2CCCN(C(=O)Cc3cn4ccsc4n3)C2)c1 (centres undefined) | -5.39%
51 | Cn1cc(CN2CCCN(C(=O)c3ccc4ccccc4n3)CC2)cn1 | -13%
52 | O=C(CN1CC(c2nc(C3CC3)no2)C1)N1CCOCC1 | -17.5%
53 | c1cncc(-c2noc(C3CN(Cc4cccs4)C3)n2)c1 | -12.2%
54 | c1cnc(-c2noc(C3CN(Cc4ccc5c(c4)CCO5)C3)n2)cn1 | -9.18%
55 | COc1cc(COCC2CCN(Cc3ccccn3)CC2)cc(OC)c1 | -8.26%
56 | CCS(=O)(=O)N1CCCC2(COCCN(c3cnccn3)C2)C1 (centres undefined) | -2.48%
57 | O=C(c1ccc[nH]1)N1CCC2(CCCN2Cc2cccnc2)CC1 | 0.719%
58 | CN1CCOCC12CCN(c1nncs1)CC2 | -2.11%
59 | CN(CCO)CC1COCCN1C(=O)C1(c2cccs2)CCCC1 (centres undefined) | -1%
